Values quoted from earlier work in patent publication US20070032536A1, “Compounds, compositions and methods” (priority 2003, published 2007).

Tested on: A549 cells
Settings: data provided by National Cancer Institute, Developmental Therapeutic Program

Structure (SMILES)	GI50 [nM]
O=c1[nH]cc(F)c(=O)[nH]1 [5-fluorouracil]	1000
COc1cccc2c1C(=O)c1c(O)c3c(c(O)c1C2=O)C[C@@](O)(C(=O)CO)C[C@@H]3O[C@H]1C[C@H](N)[C@H](O)[C@H](C)O1 [doxorubicin]	63
NC(=O)NO [hydroxyurea]	500000
CC(=O)O[C@H]1C(=O)[C@@]2(C)[C@H]([C@H](OC(=O)c3ccccc3)[C@]3(O)C[C@H](OC(=O)[C@H](O)[C@@H](NC(=O)c4ccccc4)c4ccccc4)C(C)=C1C3(C)C)[C@]1(OC(C)=O)CO[C@@H]1C[C@@H]2O [paclitaxel]	4
